Assay in all cases: Example B post-emergence herbicidal activity
Holding throughout (assay type): in vivo

Assay [1] concerns Echinochloa crus-galli (ECHCG). The following applies: 312 h, evaluated after 13 days, read-out: Post-emergence activity ECHCG (100=total damage to plant; 0=no damage to plant); for pest or weed control at 250 g/ha: rate 250 g/ha. Here is the method:
(§1) Seeds of a variety of test species were sown in standard soil in pots. After cultivation for one day (pre-emergence) or after 8 days cultivation (post-emergence) under controlled conditions in a glasshouse (at 24/16° C., day/night; 14 hours light; 65% humidity), the plants were sprayed with an aqueous spray solution derived from the formulation of the technical active ingredient in acetone/water (50:50) solution containing 0.5% Tween 20 (polyoxyethelyene sorbitan monolaurate, CAS RN 9005-64-5).
(§2) The test plants were then grown in a glasshouse under controlled conditions in a glasshouse (at 24/16° C., day/night; 14 hours light; 65% humidity) and watered twice daily. After 13 days for pre and post-emergence, the test was evaluated (100=total damage to plant; 0=no damage to plant).
(§3) Alopecurus myosuroides (ALOMY), Avena fatua (AVEFA), Setaria faberi (SETFA), Echinochloa crus-galli (ECHCG), Solanum nigrum (SOLNI) and Amaranthus retoflexus (AMARE)

Assay [2] concerns Amaranthus retoflexus (AMARE). The following applies: Amaranthus retroflexus, 312 h, evaluated after 13 days, read-out: Post-emergence activity AMARE (100=total damage to plant; 0=no damage to plant); for pest or weed control at 250 g/ha: rate 250 g/ha. How it is done: as §1, §2, §3
The subject of the next assay is Setaria faberi (SETFA). The settings on record: 312 h, evaluated after 13 days, read-out: Post-emergence activity SETFA (100=total damage to plant; 0=no damage to plant); for pest or weed control at 250 g/ha: rate 250 g/ha. How it is done: as §1, §2, §3
Assay [3] relates to Alopecurus myosuroides (ALOMY). The settings on record: 312 h, evaluated after 13 days, read-out: Post-emergence activity ALOMY (100=total damage to plant; 0=no damage to plant); for pest or weed control at 250 g/ha: rate 250 g/ha. Here is the method:
as §1, §2, §3

For another assay, the system named is Avena fatua (AVEFA). The settings on record: 312 h, evaluated after 13 days, read-out: Post-emergence activity AVEFA (100=total damage to plant; 0=no damage to plant); for pest or weed control at 250 g/ha: rate 250 g/ha. How it is done:
as §1, §2, §3

Pest or weed control data for 22 molecules are collected here from US8598365B2, “Herbicides” (Syngenta Limited, priority 2007, dated 2013).

SMILES strings stand for the structures.

Consider `Cc1sc(-c2ccc(C=O)cc2)nc1C1=C(OC(=O)C(C)(C)C)[C@H]2CC[C@H](C2)C1=O` [Compound P23], for which the pest or weed control at 250 g/ha in assay [1] was found to be 20%; in assay [2], 0%; with Setaria faberi (SETFA) it was 30%; in assay [3] it was 0%; in the assay on Avena fatua (AVEFA), 0%.
`Cc1sc(-c2ccc(Cl)cc2C(F)(F)F)nc1C1C(=O)[C@@H]2CC[C@@H](C2)C1=O` (some centres unmarked) [Compound T6]: the pest or weed control at 250 g/ha in assay [1] came to 40%; in assay [2], 0%; in the assay with Setaria faberi (SETFA), 50%; in assay [3], 0%; with Avena fatua (AVEFA) it was 0%.
As for `Cc1sc(-c2ccc(C(=O)O)cc2)cc1C1C(=O)C2CCC(C2)C1=O` (centres unmarked) [Compound T24, 4-[4-(2,4-dioxobicyclo[3.2.1]oct-3-yl)-5-methylthiophen-2-yl]benzoic acid], the pest or weed control at 250 g/ha in assay [1] stood at 0%; in assay [2], 0%; with Setaria faberi (SETFA) it was 30%; in assay [3] it was 0%; with Avena fatua (AVEFA), 0%.
Turning to `COC(=O)c1ccc(-c2cc(C3C(=O)[C@@H]4CC[C@@H](C4)C3=O)c(C)s2)cc1` (some centres unmarked) [Compound T25, 4-[4-(2,4-dioxobicyclo[3.2.1]oct-3-yl)-5-methylthiophen-2-yl]benzoic acid methyl ester], the pest or weed control at 1000 g/ha in assay [1] (rate 1000 g/ha) was 10%; in assay [2] (rate 1000 g/ha) it was 0%; with Setaria faberi (SETFA) (rate 1000 g/ha), 30%; in assay [3] (rate 1000 g/ha) it was 20%; with Avena fatua (AVEFA) (rate 1000 g/ha), 0%.
Regarding `Cc1nc(-c2ccc(Cl)cc2)sc1C1C(=O)[C@@H]2CC[C@@H](C2)C1=O` (some centres unmarked) [Compound T31], the pest or weed control at 250 g/ha came to 60% in assay [1]; 0% in assay [2]; 80% in the assay with Setaria faberi (SETFA); 0% in assay [3]; 0% in the assay with Avena fatua (AVEFA).
In the case of `O=C1C(c2csc(-c3ccc(Cl)cc3)n2)C(=O)[C@H]2CC[C@@H]1C2` (some centres unmarked) [Compound T43, 3-[2-(4-chloro-phenyl)thiazol-4-yl]bicyclo[3.2.1]octane-2,4-dione], the pest or weed control at 250 g/ha in assay [1] came out at 20%; in assay [2] it was 0%; in the assay with Setaria faberi (SETFA) it was 60%; in assay [3] it was 20%; in the assay on Avena fatua (AVEFA) it was 0%.
`Cc1nc(-c2ccc(Cl)cc2F)sc1C1C(=O)[C@@H]2CC[C@@H](C2)C1=O` (some centres unmarked) [Compound T47]: the pest or weed control at 250 g/ha in assay [1] was found to be 80%; in assay [2] it was 0%; in the assay with Setaria faberi (SETFA) it was 90%; in assay [3] it was 30%; with Avena fatua (AVEFA) it was 0%.
As for `Cc1nc(-c2ccc(Cl)c(Cl)c2)sc1C1C(=O)[C@@H]2CC[C@@H](C2)C1=O` (some centres unmarked) [Compound T48], the pest or weed control at 250 g/ha in assay [1] came to 80%; in assay [2] it was 0%; in the assay with Setaria faberi (SETFA), 80%; in assay [3], 20%; in the assay on Avena fatua (AVEFA), 0%.
For `Cc1scnc1C1C(=O)[C@@H]2CC[C@@H](C2)C1=O` (some centres unmarked) [Compound T52], the pest or weed control at 250 g/ha (in assay [1]; in assay [2]; in the assay with Setaria faberi (SETFA); in assay [3]; with Avena fatua (AVEFA)) was 0% throughout.
`Cc1sc(-c2ccsc2)nc1C1C(=O)[C@@H]2CC[C@@H](C2)C1=O` (some centres unmarked) [Compound T60]: the pest or weed control at 250 g/ha was determined as 50% in assay [1]; 0% in assay [2]; 60% in the assay with Setaria faberi (SETFA); 0% in assay [3]; 0% in the assay on Avena fatua (AVEFA).
In the case of `Cc1sc(CC(C)C)nc1C1C(=O)[C@@H]2CC[C@@H](C2)C1=O` (some centres unmarked) [Compound T61], the pest or weed control at 250 g/ha in assay [1] was found to be 0%; in assay [2], 0%; in the assay on Setaria faberi (SETFA) it was 20%; in assay [3], 0%; in the assay on Avena fatua (AVEFA), 0%.
Regarding `Cc1sc(-c2cccc(Cl)c2Cl)nc1C1C(=O)[C@@H]2CC[C@@H](C2)C1=O` (some centres unmarked) [Compound T62], the pest or weed control at 250 g/ha in assay [1] was 0%; in assay [2], 0%; in the assay with Setaria faberi (SETFA), 60%; in assay [3] it was 0%; in the assay with Avena fatua (AVEFA), 0%.
Take `Cc1sc(-c2ccccc2Cl)nc1C1C(=O)[C@@H]2CC[C@@H](C2)C1=O` (some centres unmarked) [Compound T71]: the pest or weed control at 250 g/ha in assay [1] was found to be 20%; in assay [2], 0%; in the assay with Setaria faberi (SETFA), 50%; in assay [3], 0%; in the assay on Avena fatua (AVEFA) it was 0%.
Take `Cc1sc(-c2ccc(OC(C)C)c(Cl)c2)nc1C1C(=O)[C@@H]2CC[C@@H](C2)C1=O` (some centres unmarked) [Compound T79]: the pest or weed control at 250 g/ha came out at 0% in assay [1]; 0% in assay [2]; 10% in the assay on Setaria faberi (SETFA); 0% in assay [3]; 0% in the assay on Avena fatua (AVEFA).
In the case of `CCc1sc(-c2ccc(Cl)cc2)[n+]([O-])c1C1C(=O)[C@@H]2CC[C@@H](C2)C1=O` (some centres unmarked) [Compound T89], the pest or weed control at 250 g/ha in assay [1] turned out to be 30%; in assay [2], 0%; in the assay with Setaria faberi (SETFA), 80%; in assay [3], 0%; with Avena fatua (AVEFA) it was 0%.
For the molecule `Cc1oc(-c2ccc(Cl)cc2)nc1C1C(=O)[C@@H]2CC[C@@H](C2)C1=O` (some centres unmarked) [Compound T90], the pest or weed control at 250 g/ha turned out to be 30% in assay [1]; 0% in assay [2]; 40% in the assay with Setaria faberi (SETFA); 0% in assay [3]; 0% in the assay with Avena fatua (AVEFA).
For `CCc1sc(-c2ccccc2OC)nc1C1C(=O)[C@@H]2CC[C@@H](C2)C1=O` (some centres unmarked) [Compound T95], the pest or weed control at 250 g/ha in assay [1] was found to be 70%; in assay [2], 0%; in the assay on Setaria faberi (SETFA) it was 80%; in assay [3], 80%; with Avena fatua (AVEFA) it was 30%.
Regarding `CCc1sc(-c2ccsc2)nc1C1C(=O)[C@@H]2CC[C@@H](C2)C1=O` (some centres unmarked) [Compound T97], the pest or weed control at 250 g/ha in assay [1] amounted to 70%; in assay [2] it was 0%; with Setaria faberi (SETFA), 70%; in assay [3] it was 0%; in the assay on Avena fatua (AVEFA), 0%.
`CCc1sc(-c2cccc(Cl)c2Cl)nc1C1C(=O)[C@@H]2CC[C@@H](C2)C1=O` (some centres unmarked) [Compound T98]: the pest or weed control at 250 g/ha was determined as 70% in assay [1]; 0% in assay [2]; 70% in the assay with Setaria faberi (SETFA); 20% in assay [3]; 0% in the assay on Avena fatua (AVEFA).
As to `CCc1sc(-c2ccc(C(=O)OC)cc2)nc1C1C(=O)[C@@H]2CC[C@@H](C2)C1=O` (some centres unmarked) [Compound T107], the pest or weed control at 250 g/ha in assay [1] was 60%; in assay [2], 0%; with Setaria faberi (SETFA), 0%; in assay [3] it was 0%; in the assay on Avena fatua (AVEFA), 0%.
In the case of `CCOc1ccc(-c2nc(C3C(=O)[C@@H]4CC[C@@H](C4)C3=O)c(CC)s2)cc1F` (some centres unmarked) [Compound T112], the pest or weed control at 250 g/ha in assay [1] stood at 100%; in assay [2], 0%; with Setaria faberi (SETFA) it was 100%; in assay [3] it was 70%; in the assay on Avena fatua (AVEFA), 80%.
Take `C=Cc1ccc(-c2nc(C3C(=O)[C@@H]4CC[C@@H](C4)C3=O)c(CC)s2)cc1` (some centres unmarked) [Compound T113]: the pest or weed control at 250 g/ha in assay [1] is 100%; in assay [2], 0%; with Setaria faberi (SETFA) it was 90%; in assay [3] it was 90%; with Avena fatua (AVEFA), 100%.
